This experiment deals with HCV 1b-377-neo replicon cells. Put plainly: HCV replicon assay, HCV 1b-377-neo replicon cells (1b FRET). It counts as cell-based, Hepatitis C virus genotype 1b. Particulars: Hepatitis C virus, HCV 1b-377-neo replicon cells; HCV 1b genotype; read-out: EC50 range against HCV 1b (Table 2, Range). The method in brief: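 Compounds were tested in genotype 1b subgenomic replicon cells carrying a neomycin marker, alongside a matched replicon line with an NS5A Y2065H substitution that confers resistance to a reference NS5A inhibitor.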
On to `COC(=O)N[C@H](C(=O)N1CCC[C@H]1c1nc(-c2ccc(-c3ccc(-c4[nH]c([C@@H]5CCCN5C(=O)[C@@H](NC(=O)OC)C(C)C)nc4C)cc3)cc2)c(C)[nH]1)C(C)C` [Example E5l, methyl ((1S)-1-(((2S)-2-(4-(4′-(2-((2S)-1-((2S)-2-((methoxycarbonyl)amino)-3-methylbutanoyl)-2-pyrrolidinyl)-4-methyl-1H-imidazol-5-yl)-4-biphenylyl)-5-methyl-1H-imidazol-2-yl)-1-pyrrolidinyl)carbonyl)-2-methylpropyl)carbamate], for which the EC50 is 0.001 to 0.999 nM. The figure for `COC(=O)N[C@@H](C(=O)N1CCC[C@@H]1c1ncc(-c2ccc(-c3ccc(-c4cnc([C@@H]5CC[C@H](c6ccccc6)N5C(=O)[C@H](NC(=O)OC)c5ccccc5)[nH]4)cc3)cc2)[nH]1)c1ccccc1` [Example F6, methyl ((1R)-2-((2R)-2-(5-(4′-(2-((2S,5R)-1-((2R)-2-((methoxycarbonyl)amino)-2-phenylacetyl)-5-phenyl-2-pyrrolidinyl)-1H-imidazol-5-yl)-4-biphenylyl)-1H-imidazol-2-yl)-1-pyrrolidinyl)-2-oxo-1-phenylethyl)carbamate] is 0.001 to 0.999 nM; for `CCN[C@@H](C(=O)N1CCC[C@H]1c1nc(-c2ccc(-c3ccc(-c4cnc([C@@H]5CCCN5C(=O)[C@H](NCC)c5ccccc5)[nH]4)cc3)cc2)c[nH]1)c1ccccc1` [Example F14, (1R)-N-ethyl-2-((2S)-2-(4-(4′-(2-((2S)-1-((2R)-2-(ethylamino)-2-phenylacetyl)-2-pyrrolidinyl)-1H-imidazol-5-yl)-4-biphenylyl)-1H-imidazol-2-yl)-1-pyrrolidinyl)-2-oxo-1-phenylethanamine] it is 0.001 to 0.999 nM.

Turning to `CN[C@@H](C(=O)N1CCC[C@H]1c1nc(-c2ccc(-c3ccc(-c4cnc([C@@H]5CCCN5C(=O)[C@H](NC)c5ccccc5)[nH]4)cc3)cc2)c[nH]1)c1ccccc1` [Example F15, (1R)-N-methyl-2-((2S)-2-(4-(4′-(2-((2S)-1-((2R)-2-(methylamino)-2-phenylacetyl)-2-pyrrolidinyl)-1H-imidazol-5-yl)-4-biphenylyl)-1H-imidazol-2-yl)-1-pyrrolidinyl)-2-oxo-1-phenylethanamine], the EC50 lay in the range of 0.001 to 0.999 nM.

`CCCN[C@@H](C(=O)N1CCC[C@H]1c1nc(-c2ccc(-c3ccc(-c4cnc([C@@H]5CCCN5C(=O)[C@H](NCCC)c5ccccc5)[nH]4)cc3)cc2)c[nH]1)c1ccccc1` [Example F16, N-((1R)-2-oxo-1-phenyl-2-((2S)-2-(4-(4′-(2-((2S)-1-((2R)-2-phenyl-2-(propylamino)acetyl)-2-pyrrolidinyl)-1H-imidazol-5-yl)-4-biphenylyl)-1H-imidazol-2-yl)-1-pyrrolidinyl)ethyl)-1-propanamine]: the EC50 was in the range of 0.001 to 0.999 nM. As for `CCCCN[C@@H](C(=O)N1CCC[C@H]1c1nc(-c2ccc(-c3ccc(-c4cnc([C@@H]5CCCN5C(=O)[C@H](NCCCC)c5ccccc5)[nH]4)cc3)cc2)c[nH]1)c1ccccc1` [Example F17, N-((1R)-2-((2S)-2-(4-(4′-(2-((2S)-1-((2R)-2-(butylamino)-2-phenylacetyl)-2-pyrrolidinyl)-1H-imidazol-5-yl)-4-biphenylyl)-1H-imidazol-2-yl)-1-pyrrolidinyl)-2-oxo-1-phenylethyl)-1-butanamine], the figure is 0.001 to 0.999 nM; as for `CCCOC(=O)N[C@@H](C)C(=O)N1CCC[C@H]1c1nc(-c2ccc(-c3ccc(-c4cnc([C@@H]5CCCN5C(=O)[C@H](C)NC(=O)OCCC)[nH]4)cc3)cc2)c[nH]1` [Example F20, propyl ((1S)-1-methyl-2-oxo-2-((2S)-2-(4-(4′-(2-((2S)-1-(N-(propoxycarbonyl)-L-alanyl)-2-pyrrolidinyl)-1H-imidazol-5-yl)-4-biphenylyl)-1H-imidazol-2-yl)-1-pyrrolidinyl)ethyl)carbamate], 100 to 999 nM.

By EC50 is commonly meant the midpoint of the concentration-response curve.

These data come from US8574563B2 (Bristol-Myers Squibb Company, priority 2006, dated 2013).
